In publication PMC3495162 (Journal of medicinal chemistry, 2012):
“Also recorded” adds a separate entry of the source.

Tests used:
H146 cell line = test: Cell death assay; format: cell-based; settings: for Concentration with a similar effect (>50% of H146 cells undergoing cell death): 24 hr treatment, trypan blue; for Potency in induction of cell death relative to 1 and 2: H146, 24 hr
[1] = system: multiple xenograft tumor models; settings: cited from earlier work
small cell lung cancer = settings: Phase I/II clinical trials; cited from earlier work
[2] = system: chronic lymphocytic leukemia; settings: Phase I/II clinical trials; cited from earlier work
H146 cancer cells = test: Western blot of PARP and caspase-3 cleavage in cells; format: cell-based; settings: 24 hr
Bcl-xL = Bcl-xL (Homo sapiens, UniProt Q07817); test: Fluorescence polarization competitive binding assay, Bcl-xL; settings: for Times less potent than 5 in binding affinity to Bcl-xL: relative to compound 5
Bcl-xL, sequence (Q07817 whole entry): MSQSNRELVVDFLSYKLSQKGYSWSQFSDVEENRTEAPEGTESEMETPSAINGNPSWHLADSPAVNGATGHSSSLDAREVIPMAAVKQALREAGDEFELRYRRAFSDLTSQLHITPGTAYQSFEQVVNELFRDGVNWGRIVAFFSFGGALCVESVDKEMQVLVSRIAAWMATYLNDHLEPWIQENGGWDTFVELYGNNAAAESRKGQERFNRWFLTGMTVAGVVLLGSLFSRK

Mcl-1 = Mcl-1 (Homo sapiens, UniProt Q07820); test: Fluorescence polarization competitive binding assay, Mcl-1; settings: at concentrations as high as 5 μM
Mcl-1, sequence (Q07820 whole entry): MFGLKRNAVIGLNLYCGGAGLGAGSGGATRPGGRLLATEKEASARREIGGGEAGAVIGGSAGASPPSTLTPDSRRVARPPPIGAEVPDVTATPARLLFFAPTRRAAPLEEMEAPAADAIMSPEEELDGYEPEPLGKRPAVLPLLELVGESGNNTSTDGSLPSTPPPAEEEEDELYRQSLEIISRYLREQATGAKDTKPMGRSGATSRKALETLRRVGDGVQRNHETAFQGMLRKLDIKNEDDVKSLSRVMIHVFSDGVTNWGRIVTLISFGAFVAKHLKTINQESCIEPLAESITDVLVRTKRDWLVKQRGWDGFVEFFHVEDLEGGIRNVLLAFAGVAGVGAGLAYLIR

[3] = system: H146 small-cell lung cancer cell line; test: Cell growth inhibition assay, H146; format: cell-based; settings: for Times less potent than 30 and 31 in inhibition of cell growth, H146: relative to compounds 30 and 31
[4] = system: H1417 small-cell lung cancer cell line; test: Cell growth inhibition assay, H1417; format: cell-based; settings: for Times less potent than 30 and 31 in inhibition of cell growth, H1417: relative to compounds 30 and 31
[5] = Maximum tolerated dose determination; settings: 75 mg/kg for 28, 50 mg/kg for 30, 25 mg/kg for 31
H146 xenograft tumors = test: Pharmacodynamics: PARP and caspase-3 cleavage in xenograft tumor tissue; format: in vivo, SCID mice; settings: single i.v. dose, 28 at 50 mg/kg or 30 at 25 mg/kg; 3- and 6-h time-points
[6] = system: H146 xenograft tumor model; test: Antitumor efficacy in H146 xenograft tumor model; format: in vivo, SCID mice; settings: for Antitumor activity in H146 xenograft tumor model / Weight loss in tumor-bearing animals compared to the vehicle control: 28 at 50 mg/kg, 30 at 25 mg/kg, i.v., daily, 5 days a week for two weeks
Bcl-2 = Bcl-2 (Homo sapiens, UniProt P10415); test: Fluorescence polarization competitive binding assay, Bcl-2
Bcl-2, sequence (P10415 whole entry): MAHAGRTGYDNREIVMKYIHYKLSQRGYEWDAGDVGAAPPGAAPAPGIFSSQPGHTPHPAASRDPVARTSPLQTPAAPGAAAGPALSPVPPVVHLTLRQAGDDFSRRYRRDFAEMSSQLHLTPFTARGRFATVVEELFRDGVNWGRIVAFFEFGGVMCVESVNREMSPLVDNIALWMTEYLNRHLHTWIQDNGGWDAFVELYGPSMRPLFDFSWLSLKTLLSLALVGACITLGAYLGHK

## CN(C)CC[C@H](CSc1ccccc1)Nc1ccc(S(=O)(=O)NC(=O)c2ccc(N3CCN(Cc4ccccc4-c4ccc(Cl)cc4)CC3)cc2)cc1[N+](=O)[O-] [Compound 1, reference compound]
H146 cell line
  Concentration with a similar effect (>50% of H146 cells undergoing cell death): 30 to 100 nM
[1]
  Antitumor activity in xenograft tumor models: efficiently induce tumor regression

## CC1(C)CCC(c2ccc(Cl)cc2)=C(CN2CCN(c3ccc(C(=O)NS(=O)(=O)c4ccc(N[C@H](CCN5CCOCC5)CSc5ccccc5)c(S(=O)(=O)C(F)(F)F)c4)cc3)CC2)C1 [Compound 2]
Small cell lung cancer
  Single-agent activity in patients with small cell lung cancer: very limited single-agent activity
H146 cell line
  Concentration with a similar effect (>50% of H146 cells undergoing cell death): 30 to 100 nM
[2]
  Antitumor activity in patients in chronic lymphocytic leukemia: evidence of promising antitumor activity
H146 cancer cells
  Concentration inducing clear cleavage of PARP and activation of caspase-3: 30 nM
[1]
  Antitumor activity in xenograft tumor models: efficiently induce tumor regression

## Cc1c(C(=O)O)c(-c2cccc(N3CCN(c4ccc(NS(=O)(=O)c5ccc(N[C@H](CCN(C)C)CSc6ccccc6)c([N+](=O)[O-])c5)cc4)CC3)c2)c(-c2ccc(Cl)cc2)n1C [Compound 4]
Bcl-xL
  Ki: < 1 nM
Mcl-1
  Binding to Mcl-1: no appreciable binding

## Cc1c(C(=O)NCCCN2CCN(C)CC2)c(-c2cccc(N3CCN(c4ccc(NS(=O)(=O)c5ccccc5)cc4)CC3)c2)c(-c2ccc(Cl)cc2)n1C [Compound 6, 5-(4-Chlorophenyl)-1,2-dimethyl-N-(3-(4-methylpiperazin-1-yl)propyl)-4-(3-(4-(4-(phenylsulfonamido)phenyl)piperazin-1-yl)phenyl)-1H-pyrrole-3-carboxamide]
Bcl-xL
  Times less potent than 5 in binding affinity to Bcl-xL: 30 times

## Cc1c(C(=O)NCCCN2CCN(C)CC2)c(-c2cccc(N3CCN(c4ccc(NS(=O)(=O)c5cccc(Br)c5)cc4)CC3)c2)c(-c2ccc(Cl)cc2)n1C [Compound 9, 5-(4-Chlorophenyl)-4-(3-(4-(4-(3-bromophenylsulfonamido)phenyl)piperazin-1-yl)phenyl) -1,2-dimethyl-N-(3-(4-methylpiperazin-1-yl)propyl)-1H-pyrrole-3-carboxamide]
Bcl-xL
  Times less potent than 5 in binding affinity to Bcl-xL: slightly less potent than 5

## Cc1c(C(=O)NCCCN2CCN(C)CC2)c(-c2cccc(N3CCN(c4ccc(NS(=O)(=O)c5cccc(S(=O)(=O)C(F)(F)F)c5)cc4)CC3)c2)c(-c2ccc(Cl)cc2)n1C [Compound 18, 5-(4-Chlorophenyl)-1,2-dimethyl-N-(3-(4-methylpiperazin-1-yl)propyl)-4-(3-(4-(4-(3-(trifluoromethylsulfonyl)phenylsulfonamido)phenyl)piperazin-1-yl)phenyl)-1H-pyrrole-3-carboxamide]
Bcl-xL
  Times less potent than 5 in binding affinity to Bcl-xL: as potent as 5

## Cc1c(C(=O)O)c(-c2cccc(N3CCN(c4ccc(NS(=O)(=O)c5ccc(N[C@H](CCN(C)C)CSc6ccccc6)c(S(=O)(=O)C(F)(F)F)c5)cc4)CC3)c2)c(-c2ccc(Cl)cc2)n1C [Compound 22, (R)-5-(4-Chlorophenyl)-4-(3-(4-(4-(4-(4-(dimethylamino)-1-(phenylthio)butan-2-ylamino)-3-(trifluoromethylsulfonyl)phenylsulfonamido)phenyl)piperazin-1-yl)phenyl)-1,2-dimethyl-1H-pyrrole-3-carboxylic Acid]
Bcl-xL
  Ki: < 1 nM
Mcl-1
  Binding to Mcl-1: no appreciable binding

## Cc1c(C(=O)O)c(-c2cccc(N3CCN(c4ccc(NS(=O)(=O)c5ccc(N[C@H](CCN6CCOCC6)CSc6ccccc6)c(S(=O)(=O)C(F)(F)F)c5)cc4)CC3)c2)c(-c2ccc(Cl)cc2)n1C [Compound 23, (R)-5-(4-Chlorophenyl)-1,2-dimethyl-4-(3-(4-(4-(4-(4-morpholino-1-(phenylthio)butan-2-ylamino)-3-(trifluoromethylsulfonyl)phenylsulfonamido)phenyl)piperazin-1-yl)phenyl)-1H-pyrrole-3-carboxylic Acid]
[3]; relative to compound 22
  Times less potent than 22 in inhibition of cell growth, H146: 3–5 times
[4]; relative to compound 22
  Times less potent than 22 in inhibition of cell growth, H1417: 3–5 times

## Cc1c(C(=O)O)c(-c2cccc(N3CCN(c4ccc(NS(=O)(=O)c5ccc(N[C@H](CCN6CCC(O)CC6)CSc6ccccc6)c(S(=O)(=O)C(F)(F)F)c5)cc4)CC3)c2)c(-c2ccc(Cl)cc2)n1C [Compound 28, (R)-5-(4-Chlorophenyl)-4-(3-(4-(4-(4-(4-(4-hydroxypiperidin-1-yl)-1-(phenylthio)butan-2-ylamino)-3-(trifluoromethylsulfonyl)phenylsulfonamido)phenyl)piperazin-1-yl)phenyl)-1,2-dimethyl-1H-pyrrole-3-carboxylic Acid]
H146 cell line
  Potency in induction of cell death relative to 1 and 2: somewhat less potent than 1 and 2
[5]
  Weight loss at higher doses: more than 10%
H146 xenograft tumors
  Cleavage of PARP and caspase-3 in H146 tumor tissues: robust cleavage of PARP and caspase-3
[6]
  Antitumor activity in H146 xenograft tumor model: effective in inhibition of tumor growth; also recorded: effectively inhibits tumor growth, it fails to induce tumor regression
  Weight loss in tumor-bearing animals compared to the vehicle control: less than 10%
H146 cancer cells
  Concentration inducing clear cleavage of PARP and activation of caspase-3: 100 nM
Bcl-xL
  Ki: < 1 nM

## CCn1c(C)c(C(=O)O)c(-c2cccc(N3CCN(c4ccc(NS(=O)(=O)c5ccc(N[C@H](CCN6CCC(O)CC6)CSc6ccccc6)c(S(=O)(=O)C(F)(F)F)c5)cc4)CC3)c2)c1-c1ccc(Cl)cc1 [Compound 30, (R)-5-(4-Chlorophenyl)-1-ethyl-4-(3-(4-(4-(4-(4-(4-hydroxypiperidin-1-yl)-1-(phenylthio)butan-2-ylamino)-3-(trifluoromethylsulfonyl)phenylsulfonamido)phenyl)piperazin-1-yl)phenyl)-2-methyl-1H-pyrrole-3-carboxylic Acid]
H146 cell line
  Potency in induction of cell death relative to 1 and 2: several times more potent than 1 and 2
Bcl-2
  Ki: < 1 nM
[5]
  Weight loss at higher doses: more than 10%
H146 xenograft tumors
  Cleavage of PARP and caspase-3 in H146 tumor tissues: robust cleavage of PARP and caspase-3
[6]
  Antitumor activity in H146 xenograft tumor model: rapid, complete and durable tumor regression
  Weight loss in tumor-bearing animals compared to the vehicle control: less than 10%
[6]; 30 at 25 mg/kg i.v., 7 mice treated
  Tumor-free mice at day 47 (15 days post-treatment): all mice were tumor-free
H146 cancer cells
  Concentration inducing clear cleavage of PARP and activation of caspase-3: 10 nM
Bcl-xL
  Ki: < 1 nM

## Cc1c(C(=O)O)c(-c2cccc(N3CCN(c4ccc(NS(=O)(=O)c5ccc(N[C@H](CCN6CCC(O)CC6)CSc6ccccc6)c(S(=O)(=O)C(F)(F)F)c5)cc4)CC3)c2)c(-c2ccc(Cl)cc2)n1C(C)C [Compound 31, (R)-5-(4-Chlorophenyl)-4-(3-(4-(4-(4-(4-(4-hydroxypiperidin-1-yl)-1-(phenylthio)butan-2-ylamino)-3-(trifluoromethylsulfonyl)phenylsulfonamido)phenyl)piperazin-1-yl)phenyl)-1-isopropyl-2-methyl-1H-pyrrole-3-carboxylic Acid]
H146 cell line
  Potency in induction of cell death relative to 1 and 2: several times more potent than 1 and 2
[5]
  Weight loss at higher doses: more than 10%
Bcl-xL
  Ki: < 1 nM

## CCCn1c(C)c(C(=O)O)c(-c2cccc(N3CCN(c4ccc(NS(=O)(=O)c5ccc(N[C@H](CCN6CCC(O)CC6)CSc6ccccc6)c(S(=O)(=O)C(F)(F)F)c5)cc4)CC3)c2)c1-c1ccc(Cl)cc1 [Compound 32, (R)-5-(4-Chlorophenyl)-4-(3-(4-(4-(4-(4-(4-hydroxypiperidin-1-yl)-1-(phenylthio)butan-2-ylamino)-3-(trifluoromethylsulfonyl)phenylsulfonamido)phenyl)piperazin-1-yl)phenyl)-2-methyl-1-propyl-1H-pyrrole-3-carboxylic Acid]
[3]
  Times less potent than 30 and 31 in inhibition of cell growth, H146: > 10 times
[4]
  Times less potent than 30 and 31 in inhibition of cell growth, H1417: > 10 times
Bcl-xL
  Ki: < 1 nM

## CCCCn1c(C)c(C(=O)O)c(-c2cccc(N3CCN(c4ccc(NS(=O)(=O)c5ccc(N[C@H](CCN6CCC(O)CC6)CSc6ccccc6)c(S(=O)(=O)C(F)(F)F)c5)cc4)CC3)c2)c1-c1ccc(Cl)cc1 [Compound 33, (R)-1-Butyl-5-(4-chlorophenyl)-4-(3-(4-(4-(4-(4-(4-hydroxypiperidin-1-yl)-1-(phenylthio)butan-2-ylamino)-3-(trifluoromethylsulfonyl)phenylsulfonamido)phenyl)piperazin-1-yl)phenyl)-2-methyl-1H-pyrrole-3-carboxylic acid]
[3]
  Times less potent than 30 and 31 in inhibition of cell growth, H146: > 10 times
[4]
  Times less potent than 30 and 31 in inhibition of cell growth, H1417: > 10 times
Bcl-xL
  Ki: < 1 nM
